The supplement of paper PMC11061612

What was measured:
Test in all cases: Bliss excess, mean over the matrix (fraction); higher = more synergy
[1] = tested on: HCC1500 (Breast Carcinoma)
In short: (§1)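 Cell lines in DMEM/F12 or RPMI with 10% FBS were plated in 1536-well plates, held 24 hours at 37°C, 5% CO2, then given two-drug dose matrices for 72 hours (DMSO typically 0.2%). Viability was read by CellTiter-Glo 2.0 luminescence and scaled as inhibition from 0 (vehicle wells) to 1 (blank wells). Combination Emax is the second-highest inhibition in the matrix; Bliss excess is observed combination effect minus expected EA + EB − EA·EB, EA and EB being single-agent effects.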

[2] = tested on: SKN (Other Solid Carcinomas)
In short: as §1

[3] = tested on: EFO-21 (Ovarian Carcinoma)
In short: as §1

[4] = tested on: SK-LU-1 (Lung Adenocarcinoma)
In short: as §1

[5] = tested on: MOG-G-UVW (Low Grade Glioma)
In short: as §1

[6] = tested on: CADO-ES1 (Ewing's Sarcoma)
In short: as §1

[7] = tested on: KGN (Other Solid Carcinomas)
In short: as §1

[8] = tested on: ME-180 (Cervical Carcinoma)
In short: as §1

[9] = tested on: DU-145 (Prostate Carcinoma)
In short: as §1

[10] = tested on: OACM5-1 (Esophageal Adenocarcinoma)
In short: as §1

[11] = tested on: LC-1-sq (Squamous Cell Lung Carcinoma)
In short: as §1

[12] = tested on: NCI-H522 (Lung Adenocarcinoma)
In short: as §1

[13] = tested on: HCC2998 (Colorectal Carcinoma)
In short: as §1

[14] = tested on: NCI-H1092 (Small Cell Lung Carcinoma)
In short: as §1

[15] = tested on: NCI-H1355 (Lung Adenocarcinoma)
In short: as §1

[16] = tested on: Mo-T (Other Blood Carcinomas)
In short: as §1

[17] = tested on: ALL-SIL (T-Lymphoblastic Leukemia)
In short: as §1

[18] = tested on: KMRC-1 (Kidney Carcinoma)
In short: as §1

[19] = tested on: SW982 (Other Solid Carcinomas)
In short: as §1

[20] = tested on: COLO-668 (Small Cell Lung Carcinoma)
In short: as §1

SMILES	Bliss excess [1]	Bliss excess [2]	Bliss excess [3]	Bliss excess [4]	Bliss excess [5]	Bliss excess [6]	Bliss excess [7]	Bliss excess [8]	Bliss excess [9]	Bliss excess [10]	Bliss excess [11]	Bliss excess [12]	Bliss excess [13]	Bliss excess [14]	Bliss excess [15]	Bliss excess [16]	Bliss excess [17]	Bliss excess [18]	Bliss excess [19]	Bliss excess [20]
CN(C)CCCOc1ccc(-c2ccc3ncc4c(c3c2)n(C2CCOCC2)c(=O)n4C)cn1 [AZD0156] + C=CCn1c(=O)c2cnc(Nc3ccc(N4CCN(C)CC4)cc3)nc2n1-c1cccc(C(C)(C)O)n1 [AZD1775] (first compound max 1 µM, partner max 1 µM)	0.0408	-0.0548	-0.0369	-0.0264	-0.0525	0.0196	-0.0028	-0.0787	-0.0236	-0.051	-0.0248	-0.0131	0.057	-0.0351	-0.0472	-0.0599	-0.0205	-0.0216	-0.0676	-0.039
CN(C)CCCOc1ccc(-c2ccc3ncc4c(c3c2)n(C2CCOCC2)c(=O)n4C)cn1 [AZD0156] + CCN(CCO)CCCOc1ccc2c(Nc3cc(CC(=O)Nc4cccc(F)c4)[nH]n3)ncnc2c1 [AZD2811] (first compound max 1 µM, 7x7, partner max 1 µM)	-0.0563	-0.0358	-0.0506	-0.0518	0.045	0.0131	-0.0306	-0.0143	-0.0263	-0.0366	0.0392	-0.0201	0.0314	-0.0102	-0.0599	-0.0898	-0.0532	-0.0251	-0.0042	-0.0175
CN(C)CCCOc1ccc(-c2ccc3ncc4c(c3c2)n(C2CCOCC2)c(=O)n4C)cn1 [AZD0156] + C[C@@H]1COCCN1C2=NC(=NC(=C2)C3(CC3)[S@](=N)(=O)C)C4=C5C=CNC5=NC=C4 [AZD6738] (first compound max 1 µM, 7x7, partner max 10 µM)	-0.0112	-0.0069	-0.0206	0.0073	0.0282	0.0405	-0.0172	-0.0468	-0.0233	-0.0282	-0.0098	-0.0258	0.0637	-0.0427	-0.0234	-0.0382	-0.0759	-0.0496	-0.0507	-0.017
Cc1c2c(nn1C)CSCc1cc(n(C)n1)CSc1cc(c3ccccc3c1)OCCCc1c(C(=O)O)n(C)c3c-2c(Cl)ccc13 [AZD5991] + CCN(CCO)CCCOc1ccc2c(Nc3cc(CC(=O)Nc4cccc(F)c4)[nH]n3)ncnc2c1 [AZD2811] (first compound max 1 µM, 7x7, partner max 1 µM)	0.0466	0.0261	-0.0065	-0.0306	0.0197	0.0101	-0.0067	–	-0.0282	0.0416	0.0425	0.111	0.0679	0.0479	-0.0466	-0.0109	-0.0282	0.0096	-0.0578	0.0172
Cc1c2c(nn1C)CSCc1cc(n(C)n1)CSc1cc(c3ccccc3c1)OCCCc1c(C(=O)O)n(C)c3c-2c(Cl)ccc13 [AZD5991] + Cc1cc2ncnn2cc1Nc1ncc2c(n1)n(C1CCOCC1)c(=O)n2C [AZD7648] (first compound max 1 µM, 7x7, partner max 10 µM)	-0.0471	-0.0386	-0.116	-0.062	0.0048	-0.0296	-0.0404	-0.009	-0.0307	–	0.0048	-0.0586	-0.0317	-0.0458	-0.0055	-0.08	-0.0253	-0.0161	-0.0232	0.0003
C[C@@H](Nc1cc(F)cc(F)c1)c1cc(C(=O)N(C)C)cc2c(=O)cc(N3CCOCC3)oc12 [AZD8186] + CC(=O)c1c(C)c2cnc(Nc3ccc(N4CCNCC4)cn3)nc2n(C2CCCC2)c1=O [Palbociclib] (first compound max 10 µM, 7x7, partner max 10 µM)	–	0.0142	-0.0175	0.0599	0.11	–	0.0548	0.0177	0.0147	–	–	-0.0596	–	–	0.0321	-0.0319	–	-0.0156	0.0551	0.0261
C[C@@H](Oc1cc(-c2cnn(C3CCNCC3)c2)cnc1N)c1c(Cl)ccc(F)c1Cl [Crizotinib] + CC1=C(C(=CC=C1)Cl)NC(=O)C2=CN=C(S2)NC3=CC(=NC(=N3)C)N4CCN(CC4)CCO [Dasatinib] (first compound max 10 µM, 7x7, partner max 2 µM)	–	0.0295	0.0054	0.02	0.182	–	-0.0204	0.038	0.0158	–	–	-0.0033	–	–	-0.0431	-0.0588	–	0.0644	0.0386	-0.0289
C[C@@H](Oc1cc(-c2cnn(C3CCNCC3)c2)cnc1N)c1c(Cl)ccc(F)c1Cl [Crizotinib] + Cn1cnc2c(F)c(Nc3ccc(Br)cc3Cl)c(C(=O)NOCCO)cc21 [Selumetinib] (first compound max 10 µM, 7x7, partner max 10 µM)	–	-0.0421	-0.0233	-0.0531	0.104	–	-0.086	0.0308	-0.0321	–	–	-0.0495	–	–	-0.0223	-0.047	–	-0.0191	0.0165	0.0221
CS(=O)(=O)CCNCc1ccc(-c2ccc3ncnc(Nc4ccc(OCc5cccc(F)c5)c(Cl)c4)c3c2)o1 [Lapatinib] + Cn1cnc2c(F)c(Nc3ccc(Br)cc3Cl)c(C(=O)NOCCO)cc21 [Selumetinib] (first compound max 10 µM, 7x7, partner max 10 µM)	–	-0.0349	0.0118	-0.0145	0.024	–	0.0232	-0.028	0.0008	–	–	-0.0304	–	–	-0.0323	-0.0542	–	-0.0772	0.034	-0.0388
CS(=O)(=O)CCNCc1ccc(-c2ccc3ncnc(Nc4ccc(OCc5cccc(F)c5)c(Cl)c4)c3c2)o1 [Lapatinib] + NC1(c2ccc(-c3nc4ccn5c(=O)[nH]nc5c4cc3-c3ccccc3)cc2)CCC1 [MK-2206] (first compound max 10 µM, 7x7, partner max 10 µM)	0.0415	-0.0645	0.0024	-0.0239	0.0675	–	0.0078	0.0315	-0.0235	–	–	-0.0313	–	0.0182	0.0319	0.0719	–	0.0098	-0.0099	-0.0393
O=C(c1cc(Cc2n[nH]c(=O)c3ccccc23)ccc1F)N1CCN(C(=O)C2CC2)CC1 [Olaparib] + CC1(C)CCC(CN2CCN(c3ccc(C(=O)NS(=O)(=O)c4ccc(NCC5CCOCC5)c([N+](=O)[O-])c4)c(Oc4cnc5[nH]ccc5c4)c3)CC2)=C(c2ccc(Cl)cc2)C1 [Venetoclax] (first compound max 10 µM, 7x7, partner max 1 µM)	–	-0.0516	-0.0495	-0.0404	0.001	–	-0.0145	-0.0274	-0.0254	–	–	-0.0627	–	–	-0.0524	-0.0336	–	-0.0522	-0.0429	-0.0261
O=C(c1cc(Cc2n[nH]c(=O)c3ccccc23)ccc1F)N1CCN(C(=O)C2CC2)CC1 [Olaparib] + CN(CC[C@H](CSC1=CC=CC=C1)NC2=C(C=C(C=C2)S(=O)(=O)NC(=O)C3=CC=C(C=C3)N4CCC(CC4)[C@H](C5=CC=CC=C5C6=CC=C(C=C6)Cl)O)S(=O)(=O)C(F)(F)F)CCO [AZD4320] (first compound max 10 µM, 7x7, partner max 1 µM)	–	-0.0712	-0.0415	-0.0445	-0.0009	–	-0.0153	-0.021	-0.0305	–	–	-0.0566	–	–	-0.0336	-0.0065	–	-0.0501	0.0389	0.0025
O=C(c1cc(Cc2n[nH]c(=O)c3ccccc23)ccc1F)N1CCN(C(=O)C2CC2)CC1 [Olaparib] + COc1nnc2ccc(N3CCC(c4ccc(OCCN5CCN(C)C(=O)[C@H]5C)cc4)CC3)nn12 [AZD5153] (first compound max 10 µM, 7x7, partner max 1 µM)	–	-0.0557	-0.0719	-0.0623	-0.0406	–	0.018	-0.0279	-0.0708	–	–	-0.0528	–	–	-0.11	-0.0413	–	-0.0556	-0.0614	-0.0335
O=C(c1cc(Cc2n[nH]c(=O)c3ccccc23)ccc1F)N1CCN(C(=O)C2CC2)CC1 [Olaparib] + Cc1c2c(nn1C)CSCc1cc(n(C)n1)CSc1cc(c3ccccc3c1)OCCCc1c(C(=O)O)n(C)c3c-2c(Cl)ccc13 [AZD5991] (first compound max 10 µM, 7x7, partner max 1 µM)	–	-0.0407	-0.0533	-0.0436	-0.0125	–	-0.0651	-0.0363	-0.0348	–	–	-0.0062	–	–	-0.0595	-0.0492	–	-0.0784	-0.0011	-0.0495
Cc1nc(-c2cn3c(n2)-c2ccc(-c4cnn(C(C)(C)C(N)=O)c4)cc2OCC3)n(C(C)C)n1 [Taselisib] + O=C(Nc1ccc2[nH]nc(-c3ccncc3)c2c1)[C@@H]1CCN(CC(=O)N2CCN(c3ccc(-c4ncccn4)cc3)CC2)C1 [SCH772984] (first compound max 10 µM, 7x7, partner max 5 µM)	–	-0.0535	0.0446	0.0898	0.0333	–	0.0378	0.0324	0.0551	–	–	0.057	–	–	-0.0124	0.0526	–	-0.0377	-0.0167	0.0737
CC1(C)CCC(CN2CCN(c3ccc(C(=O)NS(=O)(=O)c4ccc(NCC5CCOCC5)c([N+](=O)[O-])c4)c(Oc4cnc5[nH]ccc5c4)c3)CC2)=C(c2ccc(Cl)cc2)C1 [Venetoclax] + CS(=O)(=O)CCNCc1ccc(-c2ccc3ncnc(Nc4ccc(OCc5cccc(F)c5)c(Cl)c4)c3c2)o1 [Lapatinib] (first compound max 1 µM, 7x7, partner max 10 µM)	–	-0.0497	-0.0323	-0.0772	-0.0012	–	-0.0609	0.0153	-0.0511	–	–	-0.0378	–	–	-0.0548	-0.0092	–	-0.0584	-0.0456	0.0091
